The text below walks through data of PubChem BioAssay (NCI).

Among the test systems are NCI-H460 lung; OVCAR-5 ovarian; HCT-116 colon; OVCAR-8 ovarian; HOP-92 NSCLC; SF-539 CNS; KM12 colon; A498 renal; SK-MEL-28 melanoma; CAKI-1 renal; RXF 393 renal; U251 CNS; DU-145 prostate; MDA-N; SNB-75 CNS; LOX IMVI melanoma; HL-60(TB) leukemia; CCRF-CEM leukemia.
Common to all, as to test: DTP human tumour cell line panel, 48 h

The structures appear in SMILES notation.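 Interpolation was linear, between the two tested concentrations surrounding the appropriate level; five concentrations were tested over 48 hours in 96-well plates. The concentration for full growth arrest is given as TGI.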 Bounds are passed on as bounds.

On to `CC(C)OC(=O)c1ccc(NCc2cc(O)ccc2O)cc1Cl`, for which the concentration for total growth inhibition (TGI) – broadly, the concentration giving total growth inhibition – was 23.7 µM in the assay on NCI-H460 lung; 26.6 µM with OVCAR-5 ovarian; 52.5 µM in the assay with HCT-116 colon; greater than 70.1 µM in the assay with OVCAR-8 ovarian; 18 µM in the assay on HOP-92 NSCLC; 6.07 µM in the assay with SF-539 CNS. In addition, the total growth inhibition concentration (TGI) is greater than 38.1 µM with KM12 colon; greater than 75.9 µM with A498 renal; 38.6 µM with SK-MEL-28 melanoma; 3.02 µM with CAKI-1 renal; 13.1 µM in the assay with RXF 393 renal; 24.6 µM in the assay on U251 CNS. Besides, the TGI is 26.4 µM with DU-145 prostate, 22.6 µM in the assay with MDA-N, 31.1 µM with SNB-75 CNS and greater than 100 µM in the assay with LOX IMVI melanoma.
With `O=C(NC1=NCC(CN2CCN(c3ccccc3)CC2)O1)Nc1ccccc1` (stereo not drawn), the TGI with NCI-H460 lung, in the assay on OVCAR-5 ovarian, with HCT-116 colon, in the assay on HOP-92 NSCLC, in the assay with KM12 colon and with A498 renal was greater than 100 µM each time. The TGI in the assay on SK-MEL-28 melanoma, with HL-60(TB) leukemia, in the assay on CAKI-1 renal, in the assay with CCRF-CEM leukemia, in the assay on RXF 393 renal and in the assay on U251 CNS was greater than 100 µM in each case. Moreover, the TGI with DU-145 prostate, in the assay on MDA-N and in the assay on LOX IMVI melanoma was greater than 100 µM in each case.
As for `COC1=C(OC)C(=O)C(Cc2c(Cl)nc3sc(C)cn23)=C(C)C1=O`, the concentration for total growth inhibition (TGI) was 37.8 µM in the assay on NCI-H460 lung; 35.9 µM in the assay on OVCAR-5 ovarian; 55.9 µM with HCT-116 colon; 41.2 µM in the assay with OVCAR-8 ovarian; 34.6 µM with SF-539 CNS; 27.8 µM in the assay on KM12 colon. The TGI with A498 renal turned out to be 65.5 µM; in the assay on SK-MEL-28 melanoma, 32.2 µM; with CAKI-1 renal, 72.7 µM; in the assay on CCRF-CEM leukemia, 8.73 µM; in the assay on RXF 393 renal it was 41.7 µM; in the assay with U251 CNS it was 36 µM. Also, the values for the TGI with DU-145 prostate, in the assay on MDA-N and in the assay with LOX IMVI melanoma were 61 µM, 32.8 µM and 34.1 µM, respectively.
`COC1(OC)c2no[n+]([O-])c2CCC1O` (stereo not drawn): the TGI with NCI-H460 lung, with OVCAR-5 ovarian, in the assay on HCT-116 colon, in the assay with OVCAR-8 ovarian, in the assay on HOP-92 NSCLC and in the assay on SF-539 CNS was greater than 100 µM throughout. Besides, the TGI in the assay on KM12 colon, in the assay with A498 renal, in the assay on SK-MEL-28 melanoma, in the assay with CAKI-1 renal, in the assay with CCRF-CEM leukemia and in the assay on RXF 393 renal was greater than 100 µM in each case. The TGI with DU-145 prostate, in the assay on MDA-N and with LOX IMVI melanoma was greater than 100 µM throughout.
With `C=CCNC1=C2C[C@@H](C)C[C@@H](OC)[C@H](OC(=O)CCN)[C@H](C)/C=C(\C)[C@@H](OC(N)=O)[C@H](OC)/C=C\C=C(/C)C(=O)NC(=CC1=O)C2=O`, the total growth inhibition concentration (TGI) with NCI-H460 lung was determined as 15.2 µM; in the assay with OVCAR-5 ovarian it was 23.3 µM; in the assay with HCT-116 colon, 13.6 µM; in the assay with OVCAR-8 ovarian, 18.4 µM; with HOP-92 NSCLC, 16.9 µM; with KM12 colon, 11.2 µM. The concentration for total growth inhibition (TGI) in the assay with A498 renal was 17.6 µM; in the assay on SK-MEL-28 melanoma, 44.2 µM; in the assay with HL-60(TB) leukemia it was 17.9 µM; in the assay with CAKI-1 renal it was 25.6 µM; in the assay on RXF 393 renal, 15.1 µM; in the assay on U251 CNS it was 18.8 µM. The concentration for total growth inhibition (TGI) in the assay on DU-145 prostate was 16 µM; in the assay with MDA-N it was 11.2 µM; in the assay with SNB-75 CNS it was 9.63 µM; with LOX IMVI melanoma, 10.8 µM.
On to `[N-]=[N+]=Nc1ccccc1C(=O)N1C(=O)c2ccccc2C(=O)N(C(=O)c2ccccc2N=[N+]=[N-])c2ccccc21`, for which the TGI with NCI-H460 lung was greater than 100 µM; with OVCAR-5 ovarian, greater than 100 µM; in the assay on HCT-116 colon, greater than 100 µM; in the assay with OVCAR-8 ovarian, greater than 100 µM; in the assay on HOP-92 NSCLC, 83.5 µM; in the assay on SF-539 CNS it was greater than 100 µM. Besides, the TGI with KM12 colon is greater than 100 µM; in the assay with A498 renal, greater than 100 µM; in the assay with SK-MEL-28 melanoma it was greater than 100 µM; with CAKI-1 renal it was greater than 100 µM; in the assay with CCRF-CEM leukemia, 84.6 µM; in the assay with RXF 393 renal, 76.6 µM. Moreover, the TGI in the assay on U251 CNS is greater than 100 µM; with DU-145 prostate it was greater than 100 µM; with MDA-N, greater than 100 µM; in the assay on SNB-75 CNS, 64 µM; in the assay on LOX IMVI melanoma it was greater than 100 µM.
Regarding `COC(=O)/C=C(/C)n1nc2ccccc2n1`, the TGI with NCI-H460 lung, in the assay with OVCAR-5 ovarian, in the assay on HCT-116 colon, with OVCAR-8 ovarian, in the assay on KM12 colon and in the assay with A498 renal was greater than 100 µM each time. Moreover, the TGI with SK-MEL-28 melanoma, in the assay on CAKI-1 renal, in the assay on CCRF-CEM leukemia, in the assay on RXF 393 renal, with U251 CNS and in the assay with DU-145 prostate was greater than 100 µM throughout. For the same compound, the total growth inhibition concentration (TGI) with MDA-N and in the assay on SNB-75 CNS was greater than 100 µM each time.
With `Clc1ccc(NCc2nnc(CCCCCCCCc3nnc(CNc4ccc(Cl)cc4)o3)o2)cc1`, the TGI in the assay on NCI-H460 lung, in the assay on OVCAR-5 ovarian, in the assay with HCT-116 colon, with OVCAR-8 ovarian, in the assay on HOP-92 NSCLC and with KM12 colon was greater than 100 µM each time. Further, the TGI with A498 renal, in the assay on CAKI-1 renal, with CCRF-CEM leukemia, in the assay on RXF 393 renal, in the assay with U251 CNS and in the assay with DU-145 prostate was greater than 100 µM each time. Also, the total growth inhibition concentration (TGI) with MDA-N, in the assay on SNB-75 CNS and in the assay on LOX IMVI melanoma was greater than 100 µM throughout.
With `O=C1c2cc(Cl)ccc2-n2cnnc2C2CSCN12` (stereo not drawn), the concentration for total growth inhibition (TGI) in the assay on NCI-H460 lung, in the assay with OVCAR-5 ovarian, with HCT-116 colon, in the assay on OVCAR-8 ovarian, with KM12 colon and in the assay on A498 renal was greater than 100 µM in each case. For the same compound, the TGI in the assay with SK-MEL-28 melanoma is greater than 100 µM; with CAKI-1 renal it was 46 µM; in the assay with CCRF-CEM leukemia it was greater than 100 µM; with RXF 393 renal, greater than 100 µM; in the assay on U251 CNS it was greater than 100 µM; in the assay on DU-145 prostate, greater than 100 µM. For the same compound, the TGI in the assay with MDA-N, in the assay with SNB-75 CNS and in the assay with LOX IMVI melanoma was greater than 100 µM throughout.
